Assay results published in EP0336800A1, “Methods and kit for determining sulfamethazine in animal fluids or feed” (IDETEK, INC., priority 1988, dated 1989).
Values joined by “and” are separate entries in the source; they are usually repeats but may differ in a detail not shown here. Equal entries are not always repeated.

System: anti-sulfamethazine antibody
Experiment: Competitive direct enzyme immunoassay (EIA) with immobilized anti-sulfamethazine antibody and sulfamethazine-HRP conjugate
Assay type: binding, New Zealand female white rabbits
Conditions: for % Cross-Reactivity: (nM of sulfamethazine for 50% binding/nM sulfa analogue for 50% binding) x 100; for % Binding Mean: quadruplicate on 14 different days
Protocol: Each well of the microtiter plate was filled with 200 µL solution of r-Protein A (2 µg/mL in l0 mM PBS, pH 7.2). These strips were sealed and incubated at 4°C for 5 hours. The r-Protein A solution was aspirated and the wells were washed 5 times with saline-Tween (0.9 percent NaCl containing 0.05 percent Tween-20). Each well was then incubated with 300µL solution of 0.l percent casein in 20 mM PBS, pH 7.2, at 37°C for 30 min and washed as described above. Each well was then filled with 200µL of antibody solution (l2.5 µg/mL in 50 mM carbonate-bicarbonate buffer, pH 9.6) and incubated at 4°C overnight (l5-20 hours). The solution was aspirated and the wells air-dried at room temperature for 2-3 hours. The antibody immobilized microtiter wells thus prepared were stored in ziplock bags at 4°C.
The enzyme conjugate (sulfamethazine-HRP) was appropriately diluted (generally l:l000) with 20 mM PBS, pH 7.2, containing 0.0l percent casein (w/v) and mixed with standards or samples in l0:l ratio. The mixture was transferred to wells ([…]) and incubated at 37°C for l hour. The wells were washed five times with 20 mM PBS, pH 7.2, containing 0.05 percent Tween-20 (v/v). Each well was then filled with l00 µL of ABTS substrate solution (combine l:l (v/v) lmM ABTS, 0.lM citrate, pH 4.0, and 0.0l% thimerosal with 0.0l% H₂O₂, and 0.0l% thimerosal) and incubated at 37°C for about 20 min for color (bluish-green) development. The color development was stopped with l00 µL of l percent SDS solution (w/v). Absorbance of the color was monitored at 405 nm in an EIA plate reader. Percent binding was calculated from the absorbance contained in the absence (B′) and presence (B) of sulfamethazine in standards/samples as follows: % binding = (B/B′) x l00.
A standard curve was prepared by plotting log sulfamethazine concentration vs. percent binding. The content of sulfamethazine in an unknown sample was determined from the standard curve.

Row | Compound | % Cross-Reactivity | other results
1 | Nc1ccc(S(=O)(=O)Nc2cnc3ccccc3n2)cc1 [Sulfaquinoxaline] | 0.0% | –
2 | Cc1noc(NS(=O)(=O)c2ccc(N)cc2)c1C [Sulfisoxazole] | 0.0% | –
3 | Cc1nc(NS(=O)(=O)c2ccc(N)cc2)oc1C [N′-(4,5-Dimethyloxazol-2-yl) sulfanilamide] | 0.0% | –
4 | Nc1ccc(S(=O)(=O)Nc2ncccn2)cc1 [Sulfadiazine] | 0.0% | –
5 | COc1cc(NS(=O)(=O)c2ccc(N)cc2)nc(OC)n1 [Sulfadimethoxine] | 0.06% | –
6 | Cc1cc(NS(=O)(=O)c2ccc(N)cc2)no1 [Sulfamethoxazole] | 0.0% | –
7 | [H]/N=C(/N)NS(=O)(=O)c1ccc(N)cc1 [Sulfaguanidine] | 0.0% | –
8 | Nc1ccc(S(=O)(=O)Nc2ccccn2)cc1 [Sulfapyridine] | 0.0% | –
9 | COc1ccc(NS(=O)(=O)c2ccc(N)cc2)nn1 [Sulfamethoxypyridazine] | 0.0% | –
10 | Nc1ccc(S(=O)(=O)[O-])cc1.O.[Na+] [Sulfanilic acid, sodium salt hydrate] | 0.0% | –
11 | Nc1ccc(S(N)(=O)=O)cc1 [Sulfanilamide] | 0.0% | –
12 | Cc1cc(C)nc(NS(=O)(=O)c2ccc(N)cc2)n1 [Sulfamethazine] | 100.0% | competition with sulfamethazine-HRP conjugate for antibody binding (competitive EIA at 0 µg/mL and 0.l µg/mL of sulfamethazine): competed effectively; 50% inhibition in binding (mid-region of the EIA standard curve, standards in swine plasma): around 0.l; % Binding Mean (sulfamethazine standard 0.016 µg/mL): 83.1%; % Binding Mean (sulfamethazine standard 0.031 µg/mL): 76.0%; % Binding Mean (sulfamethazine standard 0.063 µg/mL): 64.2%; % Binding Mean (sulfamethazine standard 0.125 µg/mL): 48.4%; % Binding Mean (sulfamethazine standard 0.25 µg/mL): 31.4%; % Binding Mean (sulfamethazine standard 0.5 µg/mL): 18.3%; % Binding Mean (sulfamethazine standard 1.0 µg/mL): 10.5%
13 | Nc1ccc(S(=O)(=O)F)cc1 [Sulfanilyl fluoride] | 0.0% | –
14 | Cc1c[nH]c(=O)[nH]c1=O [Thymine] | 0.0% | –
15 | Cc1nnc(NS(=O)(=O)c2ccc(N)cc2)s1 [Sulfamethizole] | 0.0% | –
16 | Sulfasazine | 0.0% | –
17 | CC(=O)Nc1ccc(S(=O)(=O)Nc2ccc([N+](=O)[O-])cc2)cc1 [Sulfanitran] | 0.0% | –
18 | Nc1ccc(S(=O)(=O)Nc2nccs2)cc1 [Sulfathiazole] | 0.07% | –
19 | Nc1ccc(S(=O)(=O)NC(=O)c2ccccc2)cc1 [Sulfabenzamide] | 0.0% | –
20 | Cc1cc(C)nc(N)n1 [2-Amino-4,6-Dimethylpyrimidine] | 0.07% | –
21 | Cc1cc(C(C)(C)C)c(O)c(C(C)(C)C)c1 [2,6-Di-tert.-butyl-4-methyl phenol] | 0.0% | –
22 | Nc1ccc(S(=O)(=O)Nc2ccc(Cl)nn2)cc1 [Sulfachloropyridazine] | 0.0% | –
23 | NS(=O)(=O)c1ccc(C(=O)O)cc1 [4-Carboxybenzenesulfonamide] | 0.0% | –
24 | Cc1cc(NS(=O)(=O)c2ccc(N)cc2)nc(C)n1 [Sulfisomidine] | 0.0% | –
25 | COc1cnc(NS(=O)(=O)c2ccc(N)cc2)nc1 [5-Methoxysulfadiazine] | 0.34% | –
26 | NS(N)(=O)=O [Sulfamide] | 0.0% | –
27 | Nc1ccc(S(=O)(=O)Nc2ccc3cn[nH]c3c2)cc1 [N′-(6-Indazolyl) sulfanilamine] | 0.0% | –
28 | CC(=O)NS(=O)(=O)c1ccc(N)cc1 [Sulfacetamide] | 0.66% | –
29 | Cc1ccnc(NS(=O)(=O)c2ccc(N)cc2)n1 [Sulfamerazine] | 12% and 12.10% | –
